Key:
Assay in all cases: relative viability (nuclei count vs DMSO), 5 days (fraction); higher = more cells survive
[1] = test system: HARA
In short: (§1)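 Relative viability divides the nuclei count in treated wells by that in vehicle wells. Lung cancer cell lines were seeded in 1536-well plates, dosed by pin tool the next day, and fixed and stained after 5 days in one step with final 0.05% Triton X-100, 1% formaldehyde and 1 ug/ml Hoechst. Dosing was a single drug or a fixed anchor-drug dose plus five library-drug doses (not always all listed) in √10 steps, and values are medians of duplicate plates imaged at 4×.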

[2] = test system: HCC-15
In short: as §1

[3] = test system: HCC-366
In short: as §1

[4] = test system: IA-LM
In short: as §1

[5] = test system: LU99A
In short: as §1

[6] = test system: LXF-289
In short: as §1

[7] = test system: NCI-H1666
In short: as §1

[8] = test system: NCI-H1703
In short: as §1

[9] = test system: NCI-H1734
In short: as §1

[10] = test system: NCI-H1792
In short: as §1

[11] = test system: NCI-H1793
In short: as §1

[12] = test system: NCI-H1944
In short: as §1

[13] = test system: NCI-H1975
In short: as §1

[14] = test system: NCI-H2228
In short: as §1

[15] = test system: NCI-H2347
In short: as §1

[16] = test system: NCI-H2405
In short: as §1

[17] = test system: NCI-H3122
In short: as §1

[18] = test system: NCI-H460
In short: as §1

[19] = test system: NCI-H838
In short: as §1

[20] = test system: PC-3 [JPC-3]
In short: as §1

[21] = test system: SW 1573
In short: as §1

`Nc1cccc2c1CN(C1CCC(=O)NC1=O)C2=O` (stereo not drawn) [Lenalidomide] + CC1(C)CCC(c2ccc(Cl)cc2)=C(CN2CCN(c3ccc(C(=O)NS(=O)(=O)c4ccc(N[C@H](CCN5CCOCC5)CSc5ccccc5)c(S(=O)(=O)C(F)(F)F)c4)cc3)CC2)C1 [Navitoclax] (partner 0.5 µM) was tested, and the relative viability ([1]; first compound 0.253 µM) was 1.14, the relative viability ([1]; first compound 0.8 µM) was 1.12 and the relative viability ([1]; first compound 2.53 µM) was 1.19. It also gave a relative viability ([1]; first compound 8 µM) of 1.2, a relative viability ([2]; first compound 0.253 µM) of 0.698 and a relative viability ([2]; first compound 2.53 µM) of 0.814. It also gave a relative viability ([2]; first compound 8 µM) of 0.676, a relative viability ([3]; first compound 0.253 µM) of 1.02 and a relative viability ([3]; first compound 0.8 µM) of 1.19. For the same compound, the relative viability ([3]; first compound 2.53 µM) was 1.13, the relative viability ([3]; first compound 8 µM) was 1.08 and the relative viability ([4]; first compound 0.253 µM) was 0.895. For the same compound, the relative viability ([4]; first compound 0.8 µM) was 0.715, the relative viability ([4]; first compound 2.53 µM) was 0.829 and the relative viability ([4]; first compound 8 µM) was 0.786. For the same compound, the relative viability ([5]; first compound 0.253 µM) was 0.853, the relative viability ([5]; first compound 0.8 µM) was 0.963 and the relative viability ([5]; first compound 2.53 µM) was 0.925. The relative viability ([5]; first compound 8 µM) was 0.502, the relative viability ([6]; first compound 0.253 µM) was 0.963 and the relative viability ([6]; first compound 0.8 µM) was 0.971. It also gave a relative viability ([6]; first compound 2.53 µM) of 1.01, a relative viability ([6]; first compound 8 µM) of 1.06 and a relative viability ([7]; first compound 0.253 µM) of 0.915. The relative viability ([7]; first compound 0.8 µM) was 0.893, the relative viability ([7]; first compound 2.53 µM) was 0.837 and the relative viability ([7]; first compound 8 µM) was 0.856. It also gave a relative viability ([8]; first compound 0.253 µM) of 0.994, a relative viability ([8]; first compound 0.8 µM) of 1.28 and a relative viability ([8]; first compound 2.53 µM) of 1.23. For the same compound, the relative viability ([8]; first compound 8 µM) was 1.23, the relative viability ([9]; first compound 0.253 µM) was 0.802 and the relative viability ([9]; first compound 0.8 µM) was 0.831. It also gave a relative viability ([9]; first compound 2.53 µM) of 1.01, a relative viability ([9]; first compound 8 µM) of 0.796 and a relative viability ([10]; first compound 0.253 µM) of 0.74. It also gave a relative viability ([10]; first compound 0.8 µM) of 0.582, a relative viability ([10]; first compound 2.53 µM) of 0.848 and a relative viability ([10]; first compound 8 µM) of 0.364. It also gave a relative viability ([11]; first compound 0.253 µM) of 0.349, a relative viability ([11]; first compound 0.8 µM) of 0.449 and a relative viability ([11]; first compound 2.53 µM) of 0.426. It also gave a relative viability ([11]; first compound 8 µM) of 0.315, a relative viability ([12]; first compound 0.253 µM) of 0.984 and a relative viability ([12]; first compound 0.8 µM) of 1.08. For the same compound, the relative viability ([12]; first compound 2.53 µM) was 1.02, the relative viability ([12]; first compound 8 µM) was 0.873 and the relative viability ([13]; first compound 0.253 µM) was 1.13. For the same compound, the relative viability ([13]; first compound 0.8 µM) was 1.07, the relative viability ([13]; first compound 2.53 µM) was 1.25 and the relative viability ([13]; first compound 8 µM) was 1.19. The relative viability ([14]; first compound 0.253 µM) was 0.821, the relative viability ([14]; first compound 0.8 µM) was 0.711 and the relative viability ([14]; first compound 2.53 µM) was 0.949. For the same compound, the relative viability ([14]; first compound 8 µM) was 0.905, the relative viability ([15]; first compound 0.253 µM) was 0.788 and the relative viability ([15]; first compound 0.8 µM) was 0.747. It also gave a relative viability ([15]; first compound 2.53 µM) of 0.842, a relative viability ([15]; first compound 8 µM) of 0.721 and a relative viability ([16]; first compound 0.253 µM) of 0.83. The relative viability ([16]; first compound 0.8 µM) was 0.921, the relative viability ([16]; first compound 2.53 µM) was 0.793 and the relative viability ([16]; first compound 8 µM) was 0.802. The relative viability ([17]; first compound 0.253 µM) was 1, the relative viability ([17]; first compound 0.8 µM) was 1.08 and the relative viability ([17]; first compound 2.53 µM) was 0.997. For the same compound, the relative viability ([17]; first compound 8 µM) was 1.07, the relative viability ([18]; first compound 0.253 µM) was 0.811 and the relative viability ([18]; first compound 0.8 µM) was 1.28. For the same compound, the relative viability ([18]; first compound 2.53 µM) was 1.15, the relative viability ([18]; first compound 8 µM) was 1.13 and the relative viability ([19]; first compound 0.253 µM) was 1.15. It also gave a relative viability ([19]; first compound 0.8 µM) of 1.09, a relative viability ([19]; first compound 2.53 µM) of 1.29 and a relative viability ([19]; first compound 8 µM) of 1.1. The relative viability ([20]; first compound 0.253 µM) was 0.752, the relative viability ([20]; first compound 0.8 µM) was 0.771 and the relative viability ([20]; first compound 2.53 µM) was 0.863. The relative viability ([20]; first compound 8 µM) was 0.734, the relative viability ([21]; first compound 0.253 µM) was 0.931 and the relative viability ([21]; first compound 0.8 µM) was 0.911. The relative viability ([21]; first compound 2.53 µM) was 1.07 and the relative viability ([21]; first compound 8 µM) was 0.926.
